Reference: patent US11020391B2, “CRMP2 sumoylation inhibitors and uses thereof” (ARIZONA BOARD OF REGENTS ON BEHALF OF THE UNIVERSITY OF …, priority 2015, dated 2021)

How the values were obtained:
[1] = PK profile of compound AZ002; details: in vivo
From the text: In some instances, compounds of the invention are provided as a pharmaceutical acceptable salt. Suitable pharmaceutical acceptable salts include those disclosed herein. In some embodiments, pharmaceutically acceptable salts of compounds of the invention provide a better pharmacokinetics.

[2] = tested on: TTX-S NaV1.7 currents in rat DRGs; assay: Patch clamp TTX-S NaV1.7 currents in rat DRGs; type: cell-based; details: FIG. 5
Procedure: Culturing and Transfection of rat Primary Dorsal Root Ganglia (DRG) Neurons: Rat DRG neurons were isolated from 150-174 g Sprague-Dawley rats and then transfected using known procedures. In brief, removing dorsal skin and muscle and cutting the vertebral bone processes parallel to the dissection stage exposed DRGs. DRGs were then collected, trimmed at their roots, and digested in 3 ml bicarbonate free, serum free, sterile DMEM (Cat #11965, Thermo Fisher Scientific, Waltham, Mass.) solution containing neutral protease (3.125 mg·ml-1, Cat #LS02104, Worthington, Lakewood, N.J.) and collagenase Type I (5 mg·ml-1, Cat #LS004194, Worthington, Lakewood, N.J.) and incubated for 45 min at 37° C. under gentile agitation. Dissociated DRG neurons (˜1.5×106) were then gently centrifuged to collect cells and washed with DRG media DMEM containing 1% penicillin/streptomycin sulfate from 10 000 μg/ml stock, 30 ng.ml-1 nerve growth factor, and 10% fetal bovine serum (Hyclone). Collected cells were re-suspended in Nucleofector transfection reagent containing plasmids or siRNA at the working concentrations listed above. Then, cells were subjected to electroporation protocol O-003 in an Amaxa Biosystem (Lonza, Basel, Switzerland) and plated onto poly-D-lysine—and laminin-coated glass 12- or 15-mm coverslips. Transfection efficiencies were routinely between 20% and 30% with about ˜10% cell death. […]

[3] = tested on: spared nerve injury model of neuropathic pain; assay: Spared nerve injury model, mechanical hypersensitivity (paw withdrawal threshold); type: in vivo, rat; details: spinal administration 5 μg/10 μL; 7 days post-injury; n=6
Procedure: Rat Behavioral Pain Assay: Compound AZ002 reversed mechanical hypersensitivity in a model of nerve-injury induced chronic pain.
Data was analyzed using one-way ANOVA followed by Dunnett's Multiple Comparison Test using post injury baseline as control.
Indwelling intrathecal catheter: Rats were anesthetized (ketamine/xylazine anesthesia, 80/12 mg/kg i.p.; Sigma-Aldrich) and placed in a stereotaxic head holder. The cisterna magna was exposed and incised, and an 8-cm catheter (PE-10; Stoelting) was implanted terminating in the lumbar region of the spinal cord. Catheters were sutured (3-0 silk suture) into the deep muscle and externalized at the back of the neck; skin was closed with autoclips. After a recovery period of 5-7 days after implantation of the indwelling cannula, the spared nerve injury was induced.
Spared Nerve Injury (SNI): Under isoflurane anesthesia (5% induction, 2.0% maintenance in 2 L/min air), skin on the lateral surface of the left hind thigh was incised. […]
Mechanical Allodynia: Rats were allowed to acclimate within suspended wire mesh cages for 30 minutes prior to behavioral assessment. […] Paw withdrawal thresholds were calculated in grams using the Dixon non-parametric test and expressed as the Paw Withdrawal Threshold (mean±standard error; SEM) in GraphPad Prism 6.0. […]

[4] = tested on: TTX-S NaV1.7 currents in human DRGs; assay: Patch clamp H-infinity subtracted NaV1.7 currents in human DRGs; type: cell-based; details: FIG. 5
Procedure: Patch Clamp Electrophysiology: Whole cell voltage clamp and current clamp recordings were performed at room temperature using an EPC 10 Amplifier-HEKA. The internal solution for voltage clamp CAD cell recordings contained (in mM): 110CsCl, 5 MgSO4, 10 EGTA, 4 ATP Na2-ATP, and 25 HEPES (pH 7.3, 290-310 mOsm/L) and external solution contained (in mM): 100 NaCl, 10 tetraethylammonium chloride, 1 CaCl2, 1 CdCl2, 1 MgCl2, 10 D-glucose, 4 4-aminopyridine, 0.1 NiCl2, 10 HEPES (pH 7.3, 310-315 mosM/L). For DRG and HEK293 cells the internal solution for voltage clamp contained (in mM): 140CsF, 1.1Cs-EGTA, 10 NaCl, and 15 HEPES (pH 7.3, 290-310 mOsm/L) and external solution contained (in mM): 140 NaCl, 3 KCl, 30 tetraethylammonium chloride, 1 CaCl2, 0.5 CdCl2, 1 MgCl2, 10 D-glucose, 10 HEPES (pH 7.3, 310-315 mosM/L). […]
Voltage clamp protocols: CAD and HEK293 cells were subjected to current-density (I-V) and fast-inactivation voltage protocols. […] The TTX-R peak current density was always measured at depolarizations near 0 mV and within 10 ms of the voltage step protocol. […] Thus, sodium current present at 150 ms following a voltage pulse to −60 mV was analyzed, an established method of isolating Nav1.9 current. […]

[5] = tested on: human DRGs in a mixed glia-DRG co-culture; assay: Cell morphology or health of human DRGs after overnight incubation; type: cell-based

COc1cc(OC)cc(C(=O)Nc2ccc(N3CCN(C)CC3)cc2)c1 [AZ002]
Cmax [1]: 263 ng/mL | Tmax [1]: 2 h | half-life [1]: 5.8 h | AUC(0-t) ([1]; 0-24 hr): 2380 ng·h/mL | bioavailability ([1]; read-out: bioavailability (F)): 31% | inhibition of TTX-S NaV1.7 currents [2]: inhibits | reversal of mechanical hypersensitivity [3]: significantly reversed | inhibition of TTX-S NaV1.7 currents [4]: inhibits | effect on cell morphology or health [5]: does not affect cell morphology or health
